pIC50: −log10 of the molar value.
What was measured:
KB cells = assay: In vitro assay, cell growth inhibition (KB cells); type: cell-based; conditions: 72 hours; for pIC50: concentration to inhibit growth of cells by 50%
Experimental: (§1) KB cells were purchased from Human Science Research Resource Bank (Osaka, Japan). The cells were cultured in Earle's MEM (GIBCO BRL) containing 10% FBS (Bio Whittaker) at 37° C. under 5% CO2. After 24 hours the test compounds were added to the cells at the indicated concentrations. 72 hours later the cells were stained with tripan blue and counted manually. IC50 is calculated as the concentration (aqueous solution) of complex required to inhibit growth of cells by 50%.

HBC-4 = assay: Cell growth inhibition, breast cancer cell line HBC-4; type: cell-based; conditions: HBC-4, breast cancer cell line
Experimental: as §1
(§2) In a similar fashion a representative number of examples of compounds of the invention were tested for their ability to inhibit the growth/proliferation of cell types representing a number of different cancers. The results are provided in Tables 4-13, below, which provide the Inhibition Constants (IC50, μM) for each compound across various cell lines.

BSY-1 = assay: Cell growth inhibition, breast cancer cell line BSY-1; type: cell-based; conditions: BSY-1, breast cancer cell line
Experimental: as §1, §2

HBC-5 = assay: Cell growth inhibition, breast cancer cell line HBC-5; type: cell-based; conditions: HBC-5, breast cancer cell line
Experimental: as §1, §2

MCF-7 = assay: Cell growth inhibition, breast cancer cell line MCF-7; type: cell-based; conditions: MCF-7, breast cancer cell line
Experimental: as §1, §2

MDA-MB-231 = assay: Cell growth inhibition, breast cancer cell line MDA-MB-231; type: cell-based; conditions: MDA-MB-231, breast cancer cell line
Experimental: as §1, §2

U251 = assay: Cell growth inhibition, brain cancer cell line U251; type: cell-based
Experimental: as §1, §2

SF-268 = assay: Cell growth inhibition, brain cancer cell line SF-268; type: cell-based; conditions: SF-268, brain cancer cell line
Experimental: as §1, §2

SF-295 = assay: Cell growth inhibition, brain cancer cell line SF-295; type: cell-based; conditions: SF-295, brain cancer cell line
Experimental: as §1, §2

SF-539 = assay: Cell growth inhibition, brain cancer cell line SF-539; type: cell-based; conditions: SF-539, brain cancer cell line
Experimental: as §1, §2

SNB-75 = assay: Cell growth inhibition, brain cancer cell line SNB-75; type: cell-based; conditions: SNB-75, brain cancer cell line
Experimental: as §1, §2

SNB-78 = assay: Cell growth inhibition, brain cancer cell line SNB-78; type: cell-based; conditions: SNB-78, brain cancer cell line
Experimental: as §1, §2

HCC2998 = assay: Cell growth inhibition, colon cancer cell line HCC2998; type: cell-based
Experimental: as §1, §2

KM-12 = assay: Cell growth inhibition, colon cancer cell line KM-12; type: cell-based; conditions: KM-12, colon cancer cell line
Experimental: as §1, §2

HT-29 = assay: Cell growth inhibition, colon cancer cell line HT-29; type: cell-based; conditions: HT-29, colon cancer cell line
Experimental: as §1, §2

HCT-116 = assay: Cell growth inhibition, colon cancer cell line HCT-116; type: cell-based; conditions: HCT-116, colon cancer cell line
Experimental: as §1, §2

NCI-H23 = assay: Cell growth inhibition, lung cancer cell line NCI-H23; type: cell-based
Experimental: as §1, §2

NCI-H226 = assay: Cell growth inhibition, lung cancer cell line NCI-H226; type: cell-based
Experimental: as §1, §2

NCI-H460 = assay: Cell growth inhibition, lung cancer cell line NCI-H460; type: cell-based
Experimental: as §1, §2

A549 = assay: Cell growth inhibition, lung cancer cell line A549; type: cell-based
Experimental: as §1, §2

DMS273 = assay: Cell growth inhibition, lung cancer cell line DMS273; type: cell-based
Experimental: as §1, §2

DMS114 = assay: Cell growth inhibition, lung cancer cell line DMS114; type: cell-based
Experimental: as §1, §2

LOX-IMVI = assay: Cell growth inhibition, melanoma cell line LOX-IMVI; type: cell-based
Experimental: as §1, §2

OVCAR-3 = assay: Cell growth inhibition, ovarian cancer cell line OVCAR-3; type: cell-based; conditions: OVCAR-3, ovarian cancer cell line
Experimental: as §1, §2

OVCAR-4 = assay: Cell growth inhibition, ovarian cancer cell line OVCAR-4; type: cell-based; conditions: OVCAR-4, ovarian cancer cell line
Experimental: as §1, §2

OVCAR-5 = assay: Cell growth inhibition, ovarian cancer cell line OVCAR-5; type: cell-based; conditions: OVCAR-5, ovarian cancer cell line
Experimental: as §1, §2

OVCAR-8 = assay: Cell growth inhibition, ovarian cancer cell line OVCAR-8; type: cell-based; conditions: OVCAR-8, ovarian cancer cell line
Experimental: as §1, §2

SK-OV-3 = assay: Cell growth inhibition, ovarian cancer cell line SK-OV-3; type: cell-based; conditions: SK-OV-3, ovarian cancer cell line
Experimental: as §1, §2

RXF-631L = assay: Cell growth inhibition, renal cancer RXF-631L; type: cell-based
Experimental: as §1, §2

ACHN = assay: Cell growth inhibition, renal cancer ACHN; type: cell-based
Experimental: as §1, §2

St-4 = assay: Cell growth inhibition, human stomach cancer St-4; type: cell-based; conditions: St-4, human stomach cancer
Experimental: as §1, §2

MKN7 = assay: Cell growth inhibition, human stomach cancer MKN7; type: cell-based
Experimental: as §1, §2

MKN28 = assay: Cell growth inhibition, human stomach cancer MKN28; type: cell-based
Experimental: as §1, §2

MKN45 = assay: Cell growth inhibition, human stomach cancer MKN45; type: cell-based
Experimental: as §1, §2

MKN74 = assay: Cell growth inhibition, human stomach cancer MKN74; type: cell-based
Experimental: as §1, §2

DU-145 = assay: Cell growth inhibition, prostatic cancer DU-145; type: cell-based, human; conditions: DU-145, prostatic cancer
Experimental: as §1, §2

PC-3 = assay: Cell growth inhibition, prostatic cancer PC-3; type: cell-based; conditions: PC-3, prostatic cancer
Experimental: as §1, §2

[1] = test system: all cell types (cancer cell lines of Tables 4-12); assay: Cell growth inhibition, mean over all cell types of the panel; type: cell-based; conditions: mean over all cell lines of Tables 4-12
Experimental: as §1, §2

HCT-15 = assay: Cell growth inhibition, colon cancer cell line HCT-15; type: cell-based; conditions: HCT-15, colon cancer cell line
Experimental: as §1, §2

NCI-H522 = assay: Cell growth inhibition, lung cancer cell line NCI-H522; type: cell-based
Experimental: as §1, §2

MKN1 = assay: Cell growth inhibition, human stomach cancer MKN1; type: cell-based
Experimental: as §1, §2

[Cl-].[Cl-].c1cc[n+]2c(c1)-c1cccc[n+]1[Pt-2]21[NH2+]CC[NH+]1Cc1c2ccccc2cc2ccccc12 [Example 4, [Pt(bpy)(Aten)]Cl2]
KB cells remaining/growth in percent (Table 2, untitled) (KB cells; 1 μg/ml): 93.8%
KB cells remaining/growth in percent (Table 2, untitled) (KB cells; 3 μg/mL): 81.4%
KB cells remaining/growth in percent (Table 2, untitled) (KB cells; 10 μg/mL): 75.3%
KB cells remaining/growth in percent (Table 2, untitled) (KB cells; 30 μg/mL): 73.2%
KB cells remaining/growth in percent (Table 2, untitled) (KB cells; 100 μg/mL): 32.5%
pIC50 (KB cells): 4.01
log10 IC50 (M) (HBC-4): -4.14
log10 IC50 (M) (BSY-1): -4.89
log10 IC50 (M) (HBC-5): -4.12
log10 IC50 (M) (MCF-7): -4.23
log10 IC50 (M) (MDA-MB-231): -4.5
log10 IC50 (M) (U251): -4.84
log10 IC50 (M) (SF-268): -4.83
log10 IC50 (M) (SF-295): -4.9
log10 IC50 (M) (SF-539): -4.82
log10 IC50 (M) (SNB-75): -4.77
log10 IC50 (M) (SNB-78): -4.56
log10 IC50 (M) (HCC2998): -4.81
log10 IC50 (M) (KM-12): -4.77
log10 IC50 (M) (HT-29): -4.57
log10 IC50 (M) (HCT-116): -4.37
log10 IC50 (M) (NCI-H23): -4.18
log10 IC50 (M) (NCI-H226): -4.83
log10 IC50 (M) (NCI-H460): -5.23
log10 IC50 (M) (A549): -4.69
log10 IC50 (M) (DMS273): -4.85
log10 IC50 (M) (DMS114): -4.89
log10 IC50 (M) (LOX-IMVI): -4.46
log10 IC50 (M) (OVCAR-3): -4.13
log10 IC50 (M) (OVCAR-4): -4.19
log10 IC50 (M) (OVCAR-5): -4.79
log10 IC50 (M) (OVCAR-8): -4.37
log10 IC50 (M) (SK-OV-3): -4.77
log10 IC50 (M) (RXF-631L): -4.89
log10 IC50 (M) (ACHN): -4.2
log10 IC50 (M) (St-4): -4.74
log10 IC50 (M) (MKN7): -4.45
log10 IC50 (M) (MKN28): -4.34
log10 IC50 (M) (MKN45): -4.68
log10 IC50 (M) (MKN74): -4.75
log10 IC50 (M) (DU-145): -4.33
log10 IC50 (M) (PC-3): -4.22
log10 IC50 (M) [1]: -4.54

cis-Pt(NH3)2Cl2
KB cells remaining/growth in percent (Table 2, untitled) (KB cells; 1 μg/ml): 17.0%
KB cells remaining/growth in percent (Table 2, untitled) (KB cells; 3 μg/mL): 13.4%
KB cells remaining/growth in percent (Table 1, untitled) (KB cells; 5 μM): 28.20%
KB cells remaining/growth in percent (Table 2, untitled) (KB cells; 10 μg/mL): 3.0%
KB cells remaining/growth in percent (Table 1, untitled) (KB cells; 15 μM): 13.80%
KB cells remaining/growth in percent (Table 2, untitled) (KB cells; 30 μg/mL): 2.2%
KB cells remaining/growth in percent (Table 1, untitled) (KB cells; 50 μM): 6.78%
KB cells remaining/growth in percent (Table 2, untitled) (KB cells; 100 μg/mL): 1.6%
KB cells remaining/growth in percent (Table 1, untitled) (KB cells; 150 μM): 4.34%
KB cells remaining/growth in percent (Table 1, untitled) (KB cells; 500 μM): 3.52%
pIC50 (KB cells): 5.56

[Cl-].[Cl-].c1cc[n+]2c(c1)-c1cccc[n+]1[Pt-2]21[NH2+]CCC[NH+]1Cc1c2ccccc2cc2ccccc12 [Example 7, Pt(bpy)(AtC3)]
log10 IC50 (M) (HBC-4): -5.76
log10 IC50 (M) (BSY-1): -5.89
log10 IC50 (M) (HBC-5): -5.89
log10 IC50 (M) (MCF-7): -5.69
log10 IC50 (M) (MDA-MB-231): -5.78
log10 IC50 (M) (U251): -5.66
log10 IC50 (M) (SF-268): -5.62
log10 IC50 (M) (SF-295): -5.62
log10 IC50 (M) (SF-539): -5.75
log10 IC50 (M) (SNB-75): -5.59
log10 IC50 (M) (SNB-78): -5.54
log10 IC50 (M) (HCC2998): -5.7
log10 IC50 (M) (KM-12): -5.69
log10 IC50 (M) (HT-29): -5.69
log10 IC50 (M) (HCT-15): -5.56
log10 IC50 (M) (HCT-116): -5.72
log10 IC50 (M) (NCI-H23): -5.53
log10 IC50 (M) (NCI-H226): -5.64
log10 IC50 (M) (NCI-H522): -5.77
log10 IC50 (M) (NCI-H460): -5.71
log10 IC50 (M) (A549): -5.68
log10 IC50 (M) (DMS273): -5.68
log10 IC50 (M) (DMS114): -5.76
log10 IC50 (M) (LOX-IMVI): -5.76
log10 IC50 (M) (OVCAR-3): -5.68
log10 IC50 (M) (OVCAR-4): -5.7
log10 IC50 (M) (OVCAR-5): -5.8
log10 IC50 (M) (OVCAR-8): -5.52
log10 IC50 (M) (SK-OV-3): -5.61
log10 IC50 (M) (RXF-631L): -5.67
log10 IC50 (M) (ACHN): -5.67
log10 IC50 (M) (St-4): -5.61
log10 IC50 (M) (MKN1): -5.6
log10 IC50 (M) (MKN7): -5.62
log10 IC50 (M) (MKN28): -5.64
log10 IC50 (M) (MKN45): -5.63
log10 IC50 (M) (MKN74): -5.63
log10 IC50 (M) (DU-145): -5.73
log10 IC50 (M) (PC-3): -5.59
log10 IC50 (M) [1]: -5.68
